Laboratory results published in PMC6085657, “DNA display of fragment pairs as a tool for the discovery of novel biologically active small molecules” (Chemical Science, 2014).
Several values for one entry are separate records, joined by “and”; a condition that tells them apart may be missing. Identical values can stand only once. Entries after “also recorded” stand apart in the source; their conditions may differ. Like-named read-outs stand apart in the source and are kept apart here.

Assays:
[1] = biological target: T1, Hsp70 (Homo sapiens, UniProt P0DMV8); parameters: method as in PMID 16806043; conditions: read-out: affinity of Hsp70 for ligand; cited from earlier work
[2] = biological target: T1, Hsp70; experiment: Fluorescence polarization displacement assay with 1-FITC; assay type: binding; conditions: 1-FITC 25 nM, Hsp70 100 nM; R2 = 0.998; read-out: Affinity for Hsp70 by fluorescence polarization displacement (IC50)
[3] = biological target: T2, Hsp70/Hsp40 (Homo sapiens, UniProt P0DMV8); experiment: Malachite Green Hsp70 ATPase assay; assay type: biochemical; conditions: for inhibition at 1 µM: 1 molar equivalent to Hsp70 (1 μM), read-out: ATPase inhibition in dose response; for ATPase inhibition: 200 molar equivalence of inhibitor (200 μM), Hsp70/Hsp40 1 μM, ATP 1 mM
T2 construct: purchased Novus Biologicals NBC1-18367

[4] = biological target: T3, carbonic anhydrase (Homo sapiens, UniProt P00918); experiment: Pull-down from crude HEK cell lysates, Western blot for carbonic anhydrase (negative control); assay type: binding; conditions: HEK lysate, negative control protein
T3 construct: endogenous in cells; host or cells: HEK293-T

[5] = biological target: T1, Hsp70; experiment: Pull-down of Hsp70 from crude HEK cell lysates, Western blot; assay type: binding; conditions: HEK lysate, Western blot with anti-Hsp70 antibody
[6] = biological target: T4, Hsp70-GST (Homo sapiens, UniProt P0DMV8); experiment: Protein pull-down with ligand immobilized on streptavidin magnetic beads, Hsp70; assay type: binding; conditions: recombinant Hsp70-GST 300 nM, SDS PAGE
T4 construct: purchased Signal Chem H34-54G

[7] = biological target: Hsp90; experiment: SPR affinity measurement, biotinylated compounds immobilized on a streptavidin chip, Hsp90 analyte; assay type: binding; conditions: compound immobilized on streptavidin chip, values in parentheses have chi2 > 10
[8] = system: Hsp90; experiment: Protein pull-down with ligand immobilized on streptavidin magnetic beads, Hsp90; assay type: binding; conditions: recombinant Hsp90 300 nM, SDS PAGE
[9] = biological target: T5, Heat shock 70 kDa protein 1A/1B (Homo sapiens, UniProt P0DMV8); experiment: Proteomic (MS-MS) analysis of pull-down from HEK crude cell lysate; assay type: binding; conditions: Hsp71_HUMAN in pull-down from HEK crude cell lysate
T5 construct: endogenous in cells; host or cells: HEK293-T

[10] = biological target: T1, Hsp70; experiment: SPR affinity measurement, biotinylated compounds immobilized on a streptavidin chip, Hsp70 analyte; assay type: binding; conditions: compound immobilized on streptavidin chip, values in parentheses have chi2 > 10
[11] = biological target: T4, Hsp70-GST; experiment: Microarray-based screen of the focused library against Hsp70-GST (fluorescence, anti-GST DyLight 649); assay type: binding; conditions: fluorescence intensity on the microarray, mean of four spots, SD between 5% and 10%; PNA-tagged library member
Text: A microarray pairing 125 biologically validated fragments[11] (FDA-approved drugs, bioactive natural products or fragments thereof) with a library of 500 heterocycles was used as a preliminary screen.[6] The microarray contained 62 500 unique DNA sequences that combinatorially paired both fragment libraries. […] The result from this screen with Hsp70 is shown in Fig. 2, arranged with fragments from the 125-fragment set and 500-fragment set on horizontal and vertical lines, respectively. The recurrence of binding across a line reflects the fitness of a given fragment. Thus, line intensities were used to rank the different fragments. What is interesting is that lines across the library of the 500-fragment set (4B, 24B, 44B, 84B, 124B, …) shared a common structural motif (biaryl-ether; Fig. 2). […] It is noteworthy that this biaryl moiety is part of a previously reported Hsp70 ligand (MAL3-101).[13],[14] […] Although screening fragments as conjugates to a nucleic acid tag restricts their binding mode to a particular orientation (the orientation that will position the linker to the tag toward the outside of the binding pocket), it greatly facilitates the synthesis of the corresponding covalent adduct combining both fragments, as the same chemistry that was used to link the fragments to the tag can be used to covalently pair them. Nonetheless, the linker length and conformational bias must be identified experimentally. We reasoned that the identified fragments could be used as the starting point for a focused library covalently pairing the fragments. This would allow for supplementing the selected fragment set with new entities (near neighbours) and enriching the local diversity space around these initial hits. Such iterative processes are highly efficient in sifting through a large diversity space. Following this strategy, we designed an Hsp70-focused library of 10 000 members using 20 fragments A × 5 different linkers with different lengths and geometrical constraints × 100 fragments B. The 100-fragment set contained 90 entities that were not present in the original screen. To be viable, an iterative library synthesis approach should be leveraged on chemistry that is compatible with SPPS and can be performed by automated PNA-encoded synthesis. As shown in Scheme 1, this was achieved through the use of three orthogonal amino group masking strategies (Mtt, Fmoc, and azide) that enabled selective chemical reactions at both sites of the linker joining the fragment and the encoding site. Thus, a resin derivatized with lysine with orthogonal protecting groups (Mtt and N3) was split into 100 pools and deprotected on one end (Mtt deprotection using HFIP), and the different linkers to join both fragments were introduced by standard peptide coupling method, affording the two sites for fragment coupling protected by Fmoc and Mtt, respectively.[15] The fragments were coupled using two different chemistries: for fragments containing a carboxylic acid, DIC/HOBt was used; for fragments with an amino group, hydroxyl, or aniline, the amino-functionalized linker was first treated with 4-nitrophenylchloroformate and the resulting carbamate coupled with the fragment. The azide was next reduced and the first 100 pools were encoded with a 7mer Boc-protected PNA sequence. The resins were mixed and split to introduce the second encoding 7mer sequence followed by deprotection of Mtt and the introduction of the corresponding second fragments. The success of each fragment coupling and encoding step was verified by MALDI analysis of an analytical sample. Cleavage of the final library and hybridization afforded the spatially resolved 10 000-member Hsp70-focused library. A slide containing 4-fold redundancy of each DNA sequence randomly distributed on the array was used to have four data points for each small molecule–target interaction, thus allowing a statistical analysis of the hits. The array was screened under three different conditions: Hsp70, Hsp70 + Hsp40, and Hsp70 + ATP. […]

[12] = biological target: T1, Hsp70; parameters: method as in PMID 15448148; conditions: cited from earlier work

T1 sequence (P0DMV8 whole entry): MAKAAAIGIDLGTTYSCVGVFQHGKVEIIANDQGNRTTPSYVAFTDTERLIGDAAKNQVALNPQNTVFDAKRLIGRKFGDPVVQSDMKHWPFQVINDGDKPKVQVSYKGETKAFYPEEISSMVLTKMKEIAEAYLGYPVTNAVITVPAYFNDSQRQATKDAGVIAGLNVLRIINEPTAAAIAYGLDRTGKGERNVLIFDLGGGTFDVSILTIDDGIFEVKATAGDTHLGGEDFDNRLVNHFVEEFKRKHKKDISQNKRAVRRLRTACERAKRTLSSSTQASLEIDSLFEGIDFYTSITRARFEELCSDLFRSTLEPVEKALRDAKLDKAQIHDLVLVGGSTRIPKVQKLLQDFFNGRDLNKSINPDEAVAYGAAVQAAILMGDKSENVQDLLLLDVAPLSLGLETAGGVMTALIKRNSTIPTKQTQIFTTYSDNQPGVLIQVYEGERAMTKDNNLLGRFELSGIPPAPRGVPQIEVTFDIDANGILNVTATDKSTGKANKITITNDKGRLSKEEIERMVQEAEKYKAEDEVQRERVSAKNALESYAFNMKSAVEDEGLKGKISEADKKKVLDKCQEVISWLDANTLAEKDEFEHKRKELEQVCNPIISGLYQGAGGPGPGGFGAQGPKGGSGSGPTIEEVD
T2 sequence (P0DMV8 whole entry): as above
T4 sequence (P0DMV8 whole entry): as above
T5 sequence (P0DMV8 whole entry): as above

Row | SMILES | Kd [10] | FU microarray HSP70-GST [11] | Kd [7] [nM] | also measured
1 | Nc1ncnc2c1ncn2[C@@H]1O[C@H](COP(=O)(O)OP(=O)(O)O)[C@@H](O)[C@H]1O [ADP] | – | – | – | Kd [1]: 260 nM
2 | Cc1ccc(/C=C/C(=O)NCC(NC(=O)c2ccc(NC(=O)CCC(=O)c3ccc(-c4ccccc4)cc3)cc2)C(N)=O)cc1 (stereo not drawn) [Compound 1b] | – | – | – | IC50 [2]: 31 nM; inhibition at 1 µM [3]: > 50%; ATPase inhibition [3]: complete inhibition
3 | Cc1oncc1C(=O)Nc1ccc(O)c(C(=O)NCC(NC(=O)c2ccc(NC(=O)CCC(=O)c3ccc(-c4ccccc4)cc3)cc2)C(=O)NCCCCC(NC(=O)COCCOCCNC(=O)CCCCC2SCC3NC(=O)NC32)C(N)=O)c1 (stereo not drawn) [Compound 2a] | 1.58 nM | 28 653 FU | – | retention of carbonic anhydrase from crude cell lysates [4]: no carbonic anhydrase; retention of Hsp70 from crude cell lysates [5]: retained Hsp70; capture of Hsp70 on streptavidin magnetic beads [6]: retained Hsp70; KD HSP90 [7]: no measurable affinity; also recorded: Low binding; capture of Hsp90 on streptavidin magnetic beads [8]: not Hsp90; % Protein Coverage [9]: 24.8%
4 | Cc1oncc1C(=O)Nc1ccc(O)c(C(=O)NCC(NC(=O)c2ccc(NC(=O)CCC(=O)c3ccc(-c4ccccc4)cc3)cc2)C(N)=O)c1 (stereo not drawn) [Compound 2b] | – | – | – | inhibition at 1 µM [3]: > 50%; ATPase inhibition [3]: complete inhibition
5 | CSc1nnc(CCCOC(=O)NCC(NC(=O)CC2=C(C)C(=Cc3ccc([S+](C)[O-])cc3)c3ccc(F)cc32)C(=O)NCCCCC(NC(=O)COCCOCCNC(=O)CCCCC2SCC3NC(=O)NC32)C(N)=O)n1-c1ccc(Cl)cc1Cl (stereo not drawn) [Compound 4a] | 2.69 nM | 28 566 FU | 10.7 | –
6 | NC(=O)C(CCCCNC(=O)C(CNC(=O)c1cccc(-c2cccnc2)c1)NC(=O)c1ccc(NC(=O)COCC(=O)N2CCCN(S(=O)(=O)c3cccc4cnccc34)CC2)cc1)NC(=O)COCCOCCNC(=O)CCCCC1SCC2NC(=O)NC21 (stereo not drawn) [Compound 5a] | 0.38 nM | 28 447 FU | 5.44 | –
7 | CSc1nnc(CCCOC(=O)NCCCCC(NS(=O)(=O)c2ccc(-c3ccccc3)cc2)C(=O)NCCCCC(NC(=O)COCCOCCNC(=O)CCCCC2SCC3NC(=O)NC32)C(N)=O)n1-c1ccc(Cl)cc1Cl (stereo not drawn) [Compound 6a] | 2.33 nM | 28 958 FU | 18.7 | –
8 | NC(=O)C(CCCCNC(=O)C(CCCCNC(=O)c1ccc2[nH]nc(Br)c2c1)NS(=O)(=O)c1ccc(-c2ccccc2)cc1)NC(=O)COCCOCCNC(=O)CCCCC1SCC2NC(=O)NC21 (stereo not drawn) [Compound 7a] | 1.34 nM | 24 143 FU | 3.17 | –
9 | COc1ccc(C=CC(=O)NCC(NC(=O)c2cccc(NC(=O)CCC(=O)c3ccc(-c4ccccc4)cc3)c2)C(=O)NCCCCC(NC(=O)COCCOCCNC(=O)CCCCC2SCC3NC(=O)NC32)C(N)=O)cc1OC (stereo not drawn) [Compound 8a] | 0.8 nM | 27 982 FU | 16.9 | –
10 | NC(=O)C(CCCCNC(=O)C(CNC(=O)c1ccc2[nH]nc(Br)c2c1)NC(=O)c1cccc(NC(=O)CCC(=O)c2ccc(-c3ccccc3)cc2)c1)NC(=O)COCCOCCNC(=O)CCCCC1SCC2NC(=O)NC21 (stereo not drawn) [Compound 9a] | 0.64 nM | 29 024 FU | 14.7 | –
11 | COc1ccc(C=CC(=O)NCC(NC(=O)c2ccc(NC(=O)COCC(=O)NC(C)COc3c(C)cccc3C)cc2)C(=O)NCCCCC(NC(=O)COCCOCCNC(=O)CCCCC2SCC3NC(=O)NC32)C(N)=O)cc1OC (stereo not drawn) [Compound 10a] | 1.88 nM | 28 961 FU | 2.97 | –
12 | CC(C(=O)Nc1cccc(C(=O)NC(CNC(=O)c2ccc3[nH]nc(Br)c3c2)C(=O)NCCCCC(NC(=O)COCCOCCNC(=O)CCCCC2SCC3NC(=O)NC32)C(N)=O)c1)c1cccc(Oc2ccccc2)c1 (stereo not drawn) [Compound 11a] | 12 nM and 12.1 nM | 27 941 FU | 5.6 | –
13 | CSc1nnc(CCCOC(=O)NCC(NC(=O)CCC(=O)c2ccc(-c3ccccc3)cc2)C(=O)NCCCCC(NC(=O)COCCOCCNC(=O)CCCCC2SCC3NC(=O)NC32)C(N)=O)n1-c1ccc(Cl)cc1Cl (stereo not drawn) [Compound 12a] | 2.02 nM | 28 174 FU | 10.1 | –
14 | CCC(COC(=O)NCCCCC(NC(=O)CC1=C(C)C(=Cc2ccc([S+](C)[O-])cc2)c2ccc(F)cc21)C(=O)NCCCCC(NC(=O)COCCOCCNC(=O)CCCCC1SCC2NC(=O)NC21)C(N)=O)c1ccccc1 (stereo not drawn) [Compound 13a] | 1.16 nM | 27 215 FU | 29.5 | –
15 | COc1ccc(C=CC(=O)NCC(NC(=O)c2cccc(NS(=O)(=O)c3ccc(-c4ccccc4)cc3)c2)C(=O)NCCCCC(NC(=O)COCCOCCNC(=O)CCCCC2SCC3NC(=O)NC32)C(N)=O)cc1OC (stereo not drawn) [Compound 14a] | 2.88 nM | 28 588 FU | 52.8 | –
16 | Cc1ccc(C(=O)NCC(NC(=O)c2cccc(NS(=O)(=O)c3ccc(Oc4ccccc4)cc3)c2)C(=O)NCCCCC(NC(=O)COCCOCCNC(=O)CCCCC2SCC3NC(=O)NC32)C(N)=O)cc1[N+](=O)[O-] (stereo not drawn) [Compound 15a] | 1.3 nM | 28 732 FU | 35.3 | –
17 | CCCCCCN(C(=O)CCCCCN1C(=O)NC(c2ccc(-c3ccccc3)cc2)C(C(=O)OCc2ccccc2)=C1C)C(C(=O)NCCCC)c1ccc(OCC(=O)OC)c(C(=O)OC)c1 (stereo not drawn) [MAL3-101] | – | – | – | effect on Hsp70 ATPase activity [12]: stimulate this activity
